Columns and labels:
[1] = test system: A2780 cancer cell line; assay: Cytotoxicity: inhibitory growth activity, sulforhodamine B assay; assay type: cell-based; settings: 24 hours drug exposure, 96 hours recovery, SRB
Protocol: (§1) Compounds were tested for inhibitory growth activity against the A2780 and A549 cancer cell lines. Each drug was tested for activity at six different concentrations (100 μM, 50 μM, 10 μM, 5 μM, 1 μM and 0.1 μM) and each concentration was tested in triplicate, relative to a cisplatin control.
(§2) The A2780 cancer cell line was maintained by growing the cells in RPMI media supplemented with 5% fetal bovine serum, 1% penicillin/streptomycin and 2 mM L-glutamine. The cells were split when approximately 70-80% confluence were reached using 0.25% trypsin/EDTA. The cells were kept incubated at 37° C., 5% CO2, high humidity. The A549 cancer cell line was maintained by growing the cells in DMEM media supplemented with 10% fetal bovine serum, 1% penicillin/streptomycin and 2 mM L-glutamine. The cells were split when approximately 70-80% confluence were reached using 0.25% trypsin/EDTA. The cells were kept incubated at 37° C., 5% CO2, high humidity.
A2780 cancer cells were plated out at 50000 cells/well (±10%) on day one. A549 cancer cells were plated out at 20000 cells/well (±10%) on day two. On day three the test compound was dissolved in DMSO to give a stock solution of 20 mM and serial dilutions were carried out in DMSO to give concentrations of drug in DMSO of 10 mM, 2 mM, 1 mM, 0.2 mM and 0.02 mM. These were added to the wells to give the six testing concentrations and a final concentration of DMSO as 0.5% (v/v) with a total volume of drugs and media to be 200 μl. The cells were exposed to the drug for 24 hours then, after drug removal, fresh media was given and the cells were incubated for 96 hours recovery time. The remaining biomass was estimated by the sulforhodamine B assay. The cells were then fixed using 50 μl 50% (w/v) TCA and incubated at 4° C. for one hour. The biomass was stained with 100 μl 0.4% (w/v) sulforhodamine B in 1% acetic acid. The dye was solubilised with Tris Buffer and the absorbance was read using a BMG Fluostar microplate reader at 595 nm. A baseline correction at 690 nm was subtracted from the values. The absorbance for 100% cell survival was based on the average absorbance for the 0.1 μM dosed triplicate for that drug. IC50 values were calculated using XL-Fit version 4.0.

[2] = test system: A549 cancer cell line; assay: as above; assay type: cell-based; settings: 24 hours drug exposure, 96 hours recovery, SRB
Protocol: as §1
as §2, with “The cells were split when approximately 70-80% confluence were reached using 0.25% trypsin/EDTA.” left out
A2780 cancer cells were plated out at 50000 cells/well (±10%) on day one. A549 cancer cells were plated out at 20000 cells/well (±10%) on day two. […] The remaining biomass was estimated by the sulforhodamine B assay. The cells were then fixed using 50 μl 50% (w/v) TCA and incubated at 4° C. for one hour. The biomass was stained with 100 μl 0.4% (w/v) sulforhodamine B in 1% acetic acid. The dye was solubilised with Tris Buffer and the absorbance was read using a BMG Fluostar microplate reader at 595 nm. A baseline correction at 690 nm was subtracted from the values. The absorbance for 100% cell survival was based on the average absorbance for the 0.1 μM dosed triplicate for that drug. IC50 values were calculated using XL-Fit version 4.0.

[3] = Aqueous solution chemistry followed by 1H NMR (hydrolysis, arene loss); assay type: physicochemical
Protocol: NMR-Spectroscopy: All ^1H NMR experiments for characterization of synthesized compounds were recorded on either a Bruker DMX 500 MHz spectrometer equipped with TBI [^1H, ^13C, ^15N] probe-head, equipped with z-field gradients or a Bruker DPX 360 MHz spectrometer. The proton signals were calibrated against the residual solvent peak, δ 7.27 (chloroform), 2.07 (acetone) and 2.52 (DMSO). The 2D ^1H-TOCSY and 2D ^1H COSY experiments for characterization were run on a Bruker DMX 500 MHz spectrometer. 2D-^1H ROESY experiment for characterization was recorded on a Bruker AVA […] spectrometer equipped with a with a TXI [^1H, ^13C, ^15N] probe-head, equipped with z-field gradients. All pH titration experiments were recorded on a Bruker AVA 600 MHz spectrometer where dioxan was added as an internal reference (δ 3.75, in 100% D2O). The water was suppressed using a 1D Double Pulse Field Gradient Spin Echo (DPFGSE) experiment. The aqueous solution behaviour was recorded on a Bruker bio 600 MHz spectrometer equipped with a cryoprobe and the water was suppressed using a 1D Double Pulse Field Gradient Spin Echo (DPFGSE) experiment. The chemical shifts were measured relative to dioxin (internal reference δ 3.75, in 90% H2O/10% D2O). All spectra were recorded using 5 mm quartz tubes at 298 K unless stated otherwise. All NMR data were processed using Xwin-NMR (Version 2.0 Bruker UK Ltd).
The complex was dissolved in H2O/D2O, the pH was taken, and NMR spectra were recorded at uniform time intervals at a fixed temperature using a multi-zg kinetic experiment program. After acquisition, Electrospray Mass Spectrometry was performed on a portion of the NMR solution.
The solution chemistry was followed by ^1H NMR unless stated otherwise.

[4] = test system: A549 cancer cells; assay: Detection of reactive oxygen species (ROS) with DCFH-DA probe; assay type: cell-based; settings: 25 μM, 0.5% DMSO, 6.5 hours, 310 K, cells pre-loaded with DCFH-DA; FIG. 4
Protocol: The generation of ROS can be detected inside living cells using the molecular probe DCFH-DA. This probe crosses the membrane into cells where it is hydrolyzed to DCFH. In the presence of ROS it is oxidized to highly fluorescent DCF. […] Cells were loaded with DCFH-DA (10 μM, 0.5% DMSO (v/v)) and were incubated at 310 K, 5% CO2, high humidity for 30 minutes. The probe was removed and the cells were washed twice with PBS (200 μL). The cells were then kept in Hanks Balanced Salt Solution (HBSS) and the ruthenium compounds were diluted with HBSS and added to the wells (25 μM, 0.5% DMSO (v/v)). Hydrogen peroxide (25 μM) was added as a positive control and the fluorescence was read every 200 seconds over a period of 6.5 hours at 310 K by excitation at 480±10 nm and emission at 538±15 nm on a BMG fluostar plate reader. A time course experiment was performed to follow any increase in fluorescence over 6.5 hours after addition of ruthenium compounds to cells pre-loaded with DFCH-DA.

[5] = test system: A549 cancer cell line; assay: Cell viability after increasing thiol levels (NAC pre-incubation); assay type: cell-based; settings: 24 hours incubation, 96 hour recovery, 5 mM NAC for two hours, FIG. 5
Protocol: Cell viability was determined in the A549 cancer cell line after cells were pre-incubated with 5 mM NAC to increase intracellular thiol levels. […] This implies that ROS are involved in cell death.

[6] = Solution chemistry in phosphate buffer mimicking cell test conditions (NMR, ESI-MS); assay type: physicochemical; settings: 100 μM, 10 mM phosphate buffer, 95% D2O, 5% MeOD, 310 K, 24 h; pH* 7.35 (8), 7.40 (10), 7.31 (13), 7.38 (21)
Protocol: Solutions of four ruthenium complexes (8, 10, 13 and 21) in MeOD were diluted down in 10 mM phosphate buffer/D2O to give a final concentration of 100 μM ruthenium (95% D2O, 5% MeOD) and NMR spectra were recorded at 310 K initially (time ca. 15 minutes) and after 24 h. The pH* of the samples was 7.35 (8), 7.40 (10), 7.31 (13) and 7.38 (21), The samples were kept in the water bath at 310 K between acquisitions. After 24 hour, ESI-MS was performed on the samples. These conditions were chosen to mimic pH, concentration, exposure time and temperature for the biological cell tests.

[7] = Reactions with ascorbate (UV-Vis, 1H NMR); assay type: physicochemical; settings: 5 equivalents ascorbate, 10 mM phosphate buffer, pH 7.35 (UV-Vis) / 7.30 (NMR), 310K
[8] = 50 μM, 95% H2O, 5% MeOH, pH 2.27
[9] = 100 μM, 90% H2O/10% D2O, pH=ca 5, 25° C., initially (time=40 mins)

Molecule | IC50 [1] | IC50 [2] | further results
[Ru(THN)(4-phenol-azo pyridine)Cl]PF6 [Compound 19] | 38 µM | 81 µM | –
[Ru(biphenyl)(4-phenol-azo pyridine)Cl]PF6 [Compound 12] | 18 µM | 56 µM | –
[Ru(p-cymene)(4-phenol-azo pyridine)Cl]PF6 [Compound 11] | 54 µM | – | –
CN(C)c1ccc(N=Nc2cc[nH]n2)cc1.F[P-](F)(F)(F)(F)F.[Cl-].[Ru+2].c1ccc(-c2ccccc2)cc1 [Compound 15, [Ru(biphenyl)(3(5)-(4-dimethylaminophenylazo)pyrazole)Cl]PF6] | 24 µM | 32 µM | arene loss (free biphenyl peaks) ([3]; 100 μM, 99.5% D2O, 0.5% DMSO, 115 mM NaCl, pH=7.35, 37° C., over 24 hours): major peaks corresponding to free biphenyl
[Ru(THN)(3(5)-(4-dimethylaminophenylazo)pyrazole)Cl]PF6 [Compound 18] | 57 µM | – | –
[Ru(p-cymene)(Azpy-NMe2NO2)I]PF6 [Compound 20] | 40 µM | 28 µM | –
[Ru(benzene)(3(5)-(4-dimethylaminophenylazo)pyrazole)Cl]PF6 [Compound 17] | 88 µM | – | –
[Ru(biphenyl)(Azpy-NMe2)I]PF6 [Compound 10] | 3 µM | 2 µM | change in DCF fluorescence over time (ROS generation) [4]: increase in the DCF fluorescence; cell survival of cells pre-treated with NAC versus untreated cells ([5]; 1 μM drug): greater cell survival
[NH2][Pt]([NH2])([Cl])[Cl] [CDDP, cisplatin, reference compound] | – | – | cell survival of cells pre-treated with NAC versus untreated cells ([5]; 5 μM drug): greater cell survival
[(η^6-C6H5OCH2CH2OH)Ru(azpy-NMe2)I]I [Compound 22] | 15 µM | 49 µM | –
CN(C)c1ccc(N=Nc2cc[nH]n2)cc1.F[P-](F)(F)(F)(F)F.[I-].[Ru+2].c1ccc(-c2ccccc2)cc1 [Compound 16, [Ru(biphenyl)(3(5)-(4-dimethylaminophenylazo)pyrazole)I]PF6] | 31 µM | 42 µM | –
CN(C)c1ccc(N=Nc2ccccn2)cc1.Cc1ccc(C(C)C)cc1.F[P-](F)(F)(F)(F)F.[I-].[Ru+2] [Compound 8, [Ru(p-cymene)(Azpy-NMe2)I]PF6] | 5 µM | 3 µM | change of complex in solution ([3]; 100 μM, 99.5% D2O, 0.5% DMSO, 115 mM NaCl, pH=7.5, 37° C., over 24 hours): No change occurred; change of complex in solution ([3]; saturated solution (filtered), 90% H2O/10% D2O, pH=7.2, 25° C. over 24 hours): No change occurred; hydrolysis [6]: no hydrolysis had occurred; reduction by ascorbate [7]: a one electron reduction was occurring; change in DCF fluorescence over time (ROS generation) [4]: increase in the DCF fluorescence; cell survival of cells pre-treated with NAC versus untreated cells ([5]; 5 μM drug): greater cell survival
[Ru(p-cymene)(3(5)-(4-dimethylaminophenylazo)pyrazole)Cl]PF6 [Compound 14] | 18 µM | 41 µM | speciation after 24 hours ([3]; 100 μM, 90% H2O/10% D2O, pH=ca 5, 25° C., after 24 hours): exists fully in the aqua form; aqua species [3, 9]: ~40%; chloride species [3, 9]: ~60%; course of the hydrolysis reaction ([3]; 100 μM, 90% H2O/10% D2O, pH=ca 5, 37° C. over 24 hours, compared with 25° C.): the course of the reaction is the same; half live for hydrolysis [8]: 2.09 h
[Ru(bip)(2-phenyl-azo pyridine)I]PF6 [Compound 7] | 51 µM | 39 µM | –
[Ru(biphenyl)(Azpy-NMe2)Cl]PF6 [Compound 9] | 40 µM | 53 µM | –
[Ru(p-cymene)(4-phenol-azo pyridine)I]PF6 [Compound 21] | 4 µM | 4 µM | change in DCF fluorescence over time (ROS generation) [4]: increase in the DCF fluorescence; cell survival of cells pre-treated with NAC versus untreated cells ([5]; 5 μM drug): greater cell survival
[Ru(biphenyl)(4-phenol-azo pyridine)I]PF6 [Compound 13] | 5 µM | 6 µM | change in DCF fluorescence over time (ROS generation) [4]: increase in the DCF fluorescence; cell survival of cells pre-treated with NAC versus untreated cells ([5]; 5 μM drug): greater cell survival

From patent publication US20090318402A1, “RUTHENIUM (II) COMPOUNDS” (The University Court of the University of Edinburg, priority 2006, published 2009)
